Measurements as given in patent US10126316B2, “Systems and methods for the measurement of tacrolimus in oral fluids by liquid chromatography tandem mass spectrometry” (Rhode Island Council on Postsecondary Education, Statutory …, priority 2016, dated 2018).

How the values were obtained:
[1] = Stability studies of TAC in oral fluid QC samples; format: physicochemical, human; conditions: for Stability, % Accuracy, Bench top / Stability, % Accuracy, Short-term 1 weeks / Stability, % Accuracy, Short-term 4 weeks / Stability, % Accuracy, Freeze & thaw / Stability, % Accuracy, Auto-sampler 24 hrs / Stability, % Accuracy, Auto-sampler 48 hrs: N = 3; for Stability, % Accuracy, Short-term 1 weeks / Stability, % Accuracy, Short-term 4 weeks: storage at −80° C.; for Stability, % Accuracy, Freeze & thaw: three freeze and thaw cycles; for Stability, % Accuracy, Auto-sampler 24 hrs / Stability, % Accuracy, Auto-sampler 48 hrs: extracted
Method: Stability studies were performed by measuring TAC concentrations in QC1 and QC3, in three replicates. Freeze and thaw (after three freeze and thaw cycles), bench-top, auto-sampler (by re-injecting one of validation batch after it was left in the auto-sampler for 24 h and 48 h), and short-term stability up to one month were investigated.

[2] = Study B: effect of oral fluid sample collection method on tacrolimus concentration; format: in vivo, human; conditions: geometric mean (95% CI)
Method: Study B. Characterization of the effect of OF sample collection method: Blood samples were collected at pre-dose (C0) and then at two-hour after dose (C2). Patients have arrived at the hospital after an overnight fast and were remained fasted during collection of C0 samples. Matching OF samples were collected within ±5 min from blood sample time by passive drool (resting sample), after mouth rinsing with water (rinsed sample), and immediately after taking a sour candy to stimulate saliva production (stimulated sample). For the following samples, patients were asked to place a small piece of a commercial candy containing citric and tartaric acids (Sour Patch Kids, Mondelēz International, East Hanover, N.J., USA) in their mouth for 10 s with continues tongue movement. After C0 samples collection, patients were given a voucher for breakfast and were asked to report back to the study location shortly before sample collection at two-hour after dose (C2). The same process of blood and corresponding OF sample collection was followed at this time. The C2 samples were regarded as fed state.
(§1) Sample extraction was preformed mixing 200 μL of the blood sample with 800 μL of precipitating solution [ZnSO4 (17.28 g/L) in water and methanol (30:70, v/v) containing 100 ng/mL ascomycin as internal standard]. After vortex mixing, samples were centrifuged for 10 min at 13,000 rpm.
(§2) The concentration of tacrolimus in OF was measured using a validated LC-MS/MS method. […] TAC was eluted by gradient elution with 2 mM ammonium acetate/0.1 formic acid in water (mobile phase A) and in methanol (mobile phase B) at 0.4 mL/min flow rate. Initial mobile phase comprised of 50% solvent B, increased gradually to 98% over 0.5 min and maintained at this level until 1.8 min. Then mobile phase was returned to initial conditions within 10 s and maintained until the end of the run at 2.2 min to recondition the column for the next run. The elution time of TAC and internal standard was 1.0 min.
(§3) A simple sample preparation and extraction procedure was followed. Briefly, 50 μL of homogenized OF sample was added to 100 μL of ACN precipitating solvent containing internal standard (ascomycin, 600 ng/L). After vortex mixing for 10 s, the mixture was centrifuged at 10,000 g for 5 min at 20° C. The supernatant was then transferred to an auto-sampler vial, and 10 μL was injected onto LC-MS/MS. The dynamic range of the assay was 30-4,800 pg/mL. […] The lower limit of quantification (LLOQ) for the assay was set at […] Acceptance criteria for quality controls (QCs) included in the assay was accuracy between 85-115% and CV <15%. Selectivity was assessed by inspecting the presence of noise or peaks in chromatograms blank OF samples injections (from 6 donors) and a comparison with LLOQ chromatogram.

[3] = cited from earlier work
[4] = Study A: 12-hour profile of tacrolimus in oral fluid and blood; format: in vivo, human; conditions: for OF/blood Conc. (*100) / Tacrolimus Conc. in OF / Tacrolimus blood Conc.: geometric mean (95% CI)
Method: Study A. Characterization of 12-hour profile of tacrolimus in OFs: The objective of this study was to obtain parallel blood and saliva samples for 12 h after the morning dose tacrolimus. On the morning of the study day, a venous blood sample (about 4 mL) was collected in ethylenediaminetetraacetic acid (EDTA) coated tubes. Simultaneously, OF samples were collected by passive drool (resting) in a siliconized plastic cup. After the administration of morning dose of immunosuppressive agents including tacrolimus, serial samples were collected at certain time points post-dose for 12-hour. All patients fasted overnight but prior to the start of sample collection, took a protein bar with their morning medication together with a glass of water. Thus, the samples obtained in this study was regarded as samples collected at non-fasting state.
as §1, §2, §3

[5] = Tacrolimus concentration in paired oral fluid and blood samples, all samples of Example 2; format: in vivo, human
From the text: Study population: Samples included in this study were collected during two clinical studies from stable kidney transplant recipients. Protocol for each clinical study was approved by the Institutional Review Board of Rhode Island Hospital (Providence, R.I.). On the study day, all patients underwent a physical examination by the study physician and were asked to sign an informed consent prior to sample collection. All patients were on a triple immunosuppressant regimen that included tacrolimus, prednisone, and mycophenolic acid. All blood and OF samples were kept on dry ice until transfer to the Clinical Pharmacokinetics Research Laboratory at the University of Rhode Island and subsequent storage at −80° C. until further analysis.
Upon thawing saliva samples, an aliquot of saliva was weighed with an analytical balance and the weight was recorded to establish the drug concentration as pg/mg weight. Moreover, the pH of saliva was measured by an Orion STAR A111 pH meter equipped with Micro Electrode from Thermo Scientific (Waltham, Mass., USA). To assess and quantify possible blood contamination of OF, a transferrin kit from Salimetrics LLC (State College, Pa., USA) was used (the validated assay range is ≤6.6 mg/dL). Transferrin (TRNs) is a plasma protein (Mw=76,000) that is used as a biomarker for presence of blood in OF. Transferrin quantification was performed using SpectraMax M5e Microplate Reader (Sunnyvale, Calif., USA).
as §1, §2, §3

[6] = Tacrolimus concentration in oral fluid and whole blood of kidney transplant recipients by LC-MS/MS (Example 1 patient samples); format: in vivo, human
Method: The chromatographic conditions were optimized and the gradient elution described here provided the best separation of TAC and IS from suppressing phospholipid ions. Chromatographic separation was achieved using a mobile phase which consisted of water containing 2 mM ammonium acetate/0.1% (v/v) formic acid (solvent A); and MeOH containing 2 mM ammonium acetate/0.1% (v/v) formic acid (solvent B). The mobile phase was delivered at 0.4 mL/min flow rate. The run cycle started at 50% solvent (B) and increased gradually to 98% over 0.5 min and was maintained at this level until 1.8 min. To re-equilibrate the column for the next run, solvent (B) decreased within 0.1 min to 50% and remained at 50% until the end of the run at 2.2 minutes. The diversion valve was set to deliver the first 0.70 min and from 1.20 min until the end of each run to waste. The elution time of TAC and IS was 1.0 min.
Mass spectrometry detection and quantification of TAC and ASC was performed in positive electrospray ionization (ESI) and multiple reaction monitoring (MRM) modes. Intellistart tool was used to obtain initial mass spectrometry parameters in low mass resolution analysis mode followed by manual tuning to achieve highest possible sensitivity. Final mass spectrometry parameters were as following: collision energy (CE)=22 and 20 for ASC and TAC respectively, cone voltage (CV)=28, capillary voltage (kV)=1.50, source temperature (° C.)=150, cone gas flow (L/hr)=25, desolvation gas flow (L/hr)=1000, and collision gas flow (mL/min)=0.15. Ammonium adducts [M+NH4]^+ were selected as precursors for MRM with transitions (m/z, Q1→Q3) of (m/z, 809.30→756.30) and (m/z, 821.30→768.35) for ASC and TAC, respectively.
Study protocols were approved by Institutional Review Board at Rhode Island Hospital (Providence, R.I.). After giving informed consent, kidney transplant recipients attending kidney transplant clinics were recruited. […] All blood and OF samples were kept on ice until transferred to the Biomedical and Pharmaceutical Sciences (BPS) department at University of Rhode Island and stored at −80° C. until analyzed. […]

For `C=CC[C@@H]1/C=C(\C)C[C@H](C)C[C@H](OC)[C@H]2O[C@@](O)(C(=O)C(=O)N3CCCC[C@H]3C(=O)O[C@H](/C(C)=C/[C@@H]3CC[C@@H](O)[C@H](OC)C3)[C@H](C)[C@@H](O)CC1=O)[C@H](C)C[C@@H]2OC.O` [Tacrolimus], the “Stability, % Accuracy, Bench top” value ([1]; QC1 (30 pg/mL) in OF) was 111.1%, the “Stability, % Accuracy, Short-term 1 weeks” value ([1]; QC1 (30 pg/mL) in OF) was 98.4% and the “Stability, % Accuracy, Short-term 4 weeks” value ([1]; QC1 (30 pg/mL) in OF) was 100.8%. The “Stability, % Accuracy, Freeze & thaw” value ([1]; QC1 (30 pg/mL) in OF) was 108.2%, the “Stability, % Accuracy, Auto-sampler 24 hrs” value ([1]; QC1 (30 pg/mL)) was 105.3% and the “Stability, % Accuracy, Auto-sampler 48 hrs” value ([1]; QC1 (30 pg/mL)) was 102.5%. The “Stability, % Accuracy, Bench top” value ([1]; QC3 (1200 pg/mL) in OF) was 98.8%, the “Stability, % Accuracy, Short-term 1 weeks” value ([1]; QC3 (1200 pg/mL) in OF) was 98.9% and the “Stability, % Accuracy, Short-term 4 weeks” value ([1]; QC3 (1200 pg/mL) in OF) was 102.9%. The “Stability, % Accuracy, Freeze & thaw” value ([1]; QC3 (1200 pg/mL) in OF) was 111.9%, the “Stability, % Accuracy, Auto-sampler 24 hrs” value ([1]; QC3 (1200 pg/mL)) was 102.2% and the “Stability, % Accuracy, Auto-sampler 48 hrs” value ([1]; QC3 (1200 pg/mL)) was 105.6%. For the same compound, the “Stability in extracted matrix” value ([1]; auto-sampler, up to 48 h) was “stable in extracted matrix for up to 48 h”, the “OF/blood Conc. (*100)” value ([2]; C0 (fasted), Resting) was 19 (14, 24) and the “Tacrolimus Conc. in OF” value ([2]; C0 (fasted), Resting) was 1003 (747, 1348) pg/mL. For the same compound, the “Tacrolimus blood Conc.” value ([2]; C0 (fasted), Resting) was 5.5 (4.7, 6.3) ng/mL, the “OF/blood Conc. (*100)” value ([2]; C0 (fasted), Rinsed) was 11 (9, 13) and the “Tacrolimus Conc. in OF” value ([2]; C0 (fasted), Rinsed) was 584 (436, 782) pg/mL. For the same compound, the “Tacrolimus blood Conc.” value ([2]; C0 (fasted), Rinsed) was 5.4 (4.7, 6.3) ng/mL, the “OF/blood Conc. (*100)” value ([2]; C0 (fasted), Stimulated) was 3 (2, 4) and the “Tacrolimus Conc. in OF” value ([2]; C0 (fasted), Stimulated) was 164 (119, 226) pg/mL. The “Tacrolimus blood Conc.” value ([2]; C0 (fasted), Stimulated) was 5.5 (4.8, 6.2) ng/mL, the “OF/blood Conc. (*100)” value ([2]; C2 (fed), Resting) was 7 (5, 9) and the “Tacrolimus Conc. in OF” value ([2]; C2 (fed), Resting) was 635 (437, 923) pg/mL. The “Tacrolimus blood Conc.” value ([2]; C2 (fed), Resting) was 9.4 (7.6, 11.7) ng/mL, the “OF/blood Conc. (*100)” value ([2]; C2 (fed), Rinsed) was 5 (4, 7) and the “Tacrolimus Conc. in OF” value ([2]; C2 (fed), Rinsed) was 468 (347, 630) pg/mL. The “Tacrolimus blood Conc.” value ([2]; C2 (fed), Rinsed) was 9.0 (7.4, 11.0) ng/mL, the “OF/blood Conc. (*100)” value ([2]; C2 (fed), Stimulated) was 3 (2, 4) and the “Tacrolimus Conc. in OF” value ([2]; C2 (fed), Stimulated) was 235 (167, 330) pg/mL. The “Tacrolimus blood Conc.” value ([2]; C2 (fed), Stimulated) was 8.8 (7.6, 10.2) ng/mL, the “Fraction of tacrolimus distributed into red blood cells” value [3] was “About 85%” and the “Fraction of total TAC in blood present as free (unbound) form” value [3] was 1%. For the same compound, the “Concentration of TAC in blood” value ([4]; 80 paired samples, 10 patients, fed state) was 5.7 ± 2.6 ng/mL, the “Concentration of TAC in oral fluids” value ([4]; 80 paired samples, 10 patients, passive drool, fed state) was 0.885 ± 0.65 ng/mL and the “OF/blood Conc. (*100)” value ([4]; All other times) was 14 (11, 16). The “Tacrolimus Conc. in OF” value ([4]; All other times) was 783 (627, 878) pg/mL, the “Tacrolimus blood Conc.” value ([4]; All other times) was 5.5 (5.0, 5.9) ng/mL and the “OF/blood Conc. (*100)” value ([4]; Peak (C2)) was 11 (7, 16). The “Tacrolimus Conc. in OF” value ([4]; Peak (C2)) was 573 (411, 599) pg/mL, the “Tacrolimus blood Conc.” value ([4]; Peak (C2)) was 5.5 (4.6, 6.5) ng/mL and the “OF/blood Conc. (*100)” value ([4]; Trough (C0, incl. C12)) was 11 (7, 18). The “Tacrolimus Conc. in OF” value ([4]; Trough (C0, incl. C12)) was 430 (272, 680) pg/mL, the “Tacrolimus blood Conc.” value ([4]; Trough (C0, incl. C12)) was 3.8 (3.1, 4.7) ng/mL and the “Tacrolimus concentration in blood (mean±SD)” value ([5]; 276 paired samples) was 7.4 ± 5 ng/mL. For the same compound, the “Tacrolimus concentration in blood (median)” value ([5]; 276 paired samples) was 5.9 ng/mL, the “Concentration of tacrolimus in OFs (mean±SD)” value ([5]; homogenized OFs) was 0.744 ± 0.666 ng/mL and the “Concentration of tacrolimus in OFs (median)” value ([5]; homogenized OFs) was 0.505 ng/mL. The “Concentration of tacrolimus corrected for the weight of homogenized OF (mean±SD)” value ([5]; in vivo) was 540 ± 485 pg/mg, the “Concentration of tacrolimus corrected for the weight of homogenized OF (median)” value ([5]; in vivo) was 367 pg/mg and the “Concentration of TAC in OF (range)” value ([6]; 181 OF samples, stable transplant recipients) was 0.0117 to 2.8644 ng/mL. For the same compound, the “Calculated concentration of the one OF sample lower than LLOQ” value ([6]; one of 181 OF samples) was “around 8.5 pg/mL” and the “Concentration of TAC in whole blood (range)” value ([6]; stable transplant recipients) was 1.7 to 46.1 ng/mL.
